Assay results published in US20160280788A1, “USE OF ANTIBODIES AGAINST ICAM-1 IN THE TREATMENT OF PATIENTS WITH RELAPSED CANCER” (BioInvent International AB, priority 2010, published 2016).

What was measured:
[1] = test system: ICAM-1 on RPMI-8226 tumor cells; experiment: ICAM-1 expression on MM cells isolated from treated mice (flow cytometry); assay type: in vivo, SCID mice; conditions: disseminated RPMI-8226 model, cells collected at termination
Procedure: Organs for FACS analysis were collected at scarification of mice, and cells from tissues were prepared by mechanistic dissociation and dispase/collagenase enzymatic digestion (Gibco, France). Cells were stained with anti-human CD38 antibody (PerCP-Cy5, Becton Dickinson), an anti-mouse CD45 (PE, Becton Dickinson) and human ICAM-1 (BI-505 IgG1 AF647, BioInvent) and incubated in the dark for 15 min at room temperature. After the incubation, cells were washed twice and the surface fluorescence of cells was analyzed with a flow cytometer apparatus (LSRII) at the Flow Cytometry Facility of the University of Burgundy.
The health status and behavior of mice was recorded every day and body weight of mice was recorded twice a week. […] Upon termination, bone marrow, spinal cord, adrenal glands and kidneys were collected and examined for ICAM-1 expression on tumor cells. To distinguish cells of human versus murine origin, an anti-mouse CD45 mAb was used CD45. […] In addition, cells were stained with AF647 conjugated anti ICAM-1 mAb and thereafter analyzed in a FACS LSRII. Bone marrow was mechanically dissociated to a single cell suspension whereas adrenal glands, kidneys and spinal cord cells were prepared using a combination of mechanistic dissociation and dispase/collagenase digestion (Gibco, France). Prior to the experiment, dispase and collagenase treatments were shown not to effect ICAM-1 levels on MM cell lines.

ARH-77 tumors = experiment: Subcutaneous scid/ARH-77 xenograft, established (palpable tumor) model; conditions: IgG B11 even at 0.2 mg/kg (100-fold lower dose than rituximab)
Procedure: Mice were anaesthetized with a mixture of sevofluran and oxygen prior to myeloma cell inoculation and 1-5×10^6 myeloma cells were then subcutaneously injected in a volume of 100 μl into the left flank. Treatment with antibodies by intraperitonial (i.p.) injections was started either the day after cell inoculation (prophylactic model) or when tumors reached a size of approximately 100 mm^3 (established model). Antibodies were administrated in PBS in a total volume of 200 μL. Treatment with PBS or isotype control was used as control. Tumors were measured with a digital calliper and the tumor volumes were calculated according to formula: width^2×length×0.52. Animals were sacrificed when the tumor sizes reached the ethical limit of 1.5 cm. Surviving mice were sacrificed after a maximum of 5 months. Blood samples collected from the vena cava were centrifuged at 2500 g for 15 min to obtain serum and the samples were stored at −20° C. Tumors were removed for immunohistochemistry, snap frozen and were kept at −85° C.

ARH-77 cells [2] = experiment: Subcutaneous scid/ARH-77 xenograft, prophylactic model; conditions: 20 mg/kg twice weekly i.p., commencing one day after tumor cell inoculation
Procedure: Tumor cells were injected subcutaneously into the left flank of SCID mice. Mice received twice-weekly intraperitoneal injections with BI-505, control antibody or rituximab at doses of 20, 2 and/or 0.2 mg/kg commencing one day after tumor cell inoculation. There were 8 to 10 animals per treatment group. […] Statistical significance was calculated relative to control antibody treatment using Kruskal-Wallis Test (Nonparametric ANOVA) with Dunn's Multiple Comparisons Test (tumor volume) or the log-rank test (mouse survival) using Graphpad Instat or Prism software, respectively. Statistical significance was considered for *p<0.05, **p<0.01, and ***p<0.001.
Tumor cells were injected subcutaneously into the left flank of SCID mice. Mice received twice-weekly intraperitoneal injections with BI-505 at doses of 0.02-20 mg/kg commencing day after tumor cell inoculation. There were 8-10 animals per treatment group. […] Statistical significance was calculated relative to control antibody treatment using Kruskal-Wallis Test (Nonparametric ANOVA) with Dunn's Multiple Comparisons Test (tumor volume) or the log-rank test (mouse survival) using Graphpad Instat or Prism software, respectively. Statistical significance was considered for *p<0.05, **p<0.01, and ***p<0.001. Graphs illustrate representative experiments out of several performed.
(FIG. 7A) ARH-77 cells were injected subcutaneously into the left flank of SCID mice (n=8 per group). Mice were treated with the different BI-505 isotypes twice weekly. […] Statistical significance was calculated relative to control antibody treatment using Kruskal-Wallis Test (Nonparametric ANOVA) with Dunn's Multiple Comparisons Test. Statistical significance was considered for *p<0.05, **p<0.01, and ***p<0.001.
Mice were anaesthetized with a mixture of sevofluran and oxygen prior to myeloma cell inoculation and 1-5×10^6 myeloma cells were then subcutaneously injected in a volume of 100 μl into the left flank.

[3] = test system: ICAM-1 expressing tumor cell lines; experiment: Complement-dependent cytotoxicity in tumor cell lines; assay type: cell-based; conditions: panel of ICAM-1 expressing tumor cell lines; human serum
Procedure: Target cells were harvested and incubated in RPMI medium with antibodies at 5 μg/mL or at titrated concentrations between 0.01-100 μg/mL for 60 min on ice. Cells were thereafter washed and resuspended in cold medium before dispension into flow cytometry tubes. Treatments were performed in triplicates. Human serum, normal or heat-inactivated, (Sigma, Sweden) was added to tubes and the samples were incubated for 2 h at 37° C. After completed incubation ToPo-Pro-3 was added at a final concentration of 0.3 μM and cells were analyzed for membrane permeabilization using flow cytometry.

ARH-77 cells [4] = experiment: Disseminated scid/ARH-77 model of multiple myeloma; assay type: in vivo, scid mice; conditions: i.v. on Days 7, 10, 13, 16; antibody 2 mg/kg, bortezomib 0.5 mg/kg; vs control
Procedure: ARH-77 cells or RPMI-8226 were injected intraveniously into the SCID mice. (FIG. 6A) ARH-77 model. Animals received intravenous injections with antibody at 2 mg/kg or bortezomib (Velcade) at 0.5 mg/kg on Days 7, 10, 13, and 16 (as indicated by arrows in the graph). (FIG. 6B) RPMI-8226-model. BI-505 or control mAb was administered i.v at 2 mg/kg, twice weekly for 8 weeks, bortezomid, at 1 mg/kg, once weekly for 8 weeks, lenalidomide p.o with 2 mg/kg for 2 cycles consisting of 5 days of treatment and 2 days of wash out, melphalan i.v at 3 mg/kg, once weekly for 8 weeks, and dexamethasone (DXH) at 6 mg/kg/inj 3 times/week for 2 consecutive weeks. There were 6-10 mice per treatment group. Statistical significance was calculated using Log-rank Graphpad Prism software and determined at ***p<0.001. (FIG. 6C) To study the ICAM-1 level on human cells, the cells from different organs were stained and gated for CD38+/mCD45−/BI-505+. Left panel indicates the percentage of BI-505 positive cells in CD38+/mCD45 population and right panel the mean fluorescent intensity of the positive cells.
The anti-myeloma effect of BI-505 was examined in a disseminated model of multiple myeloma. The early and advanced disseminated model of multiple myeloma was performed at Oncodesign, Dijon, France. Briefly: 1×10^6 (early) or 5×10^6 (advanced) ARH-77 tumor cells in 200 μL of RPMI 1640 were injected intravenously (i.v) into the caudal vein of female scid mice (D0). Tumor cell injections were performed twenty four to forty eight hours after a whole body irradiation of mice (1.8 Gy, ^60Co, INRA, BRETENNIERES). The treatment was started at D5 (RPMI-8226 model) or D7 ([…] model) except alkeran which was administered at D10. B11 or control mAb was administered i.v. at 2 mg/kg, twice weekly for 8 weeks, bortezomib, at 1 mg/kg, once weekly for 8 weeks, lenalidomide p.o with 2 mg/kg for 2 cycles consisting of 5 days of treatment and 2 days of wash out, melphalan i.v. at 3 mg/kg, once weekly for 8 weeks and dexamethasone at 6 mg/kg, injected 2 consecutive weeks.
The disseminated model of scid/ARH-77 is a well-established experimental model that resembles human multiple myeloma disease progression and disease manifestation in many respects (33). We utilized this model to further characterize IgG B11 anti-myeloma activity (FIG. 6A). Intravenous injection of irradiated scid mice with 1×10^6 ARH-77 cells was previously shown to result in their dissemination and establishment in mouse bone-marrow, and resulting osteolytic bone-lesions and hypercalcemia, and ultimately, in animal paralysis or difficulty of breathing at which time animals were immediately sacrificed. […]

[5] = test system: HUVEC and HMVEC endothelial cells; experiment: PCD in normal endothelial cells; assay type: cell-based; conditions: resting or activated (IFN-γ) cells
Procedure: Target cells were seeded in 96-well culture plates at a density of 2×10^6 cells/mL culture medium. Titrated concentrations of IgG1 B11 or different negative and positive control antibodies were added to the cells, in the absence or presence of anti-human Fab fragment (Jackson ImmunoResearch) for cross-linking. The cells were then incubated for 16 hours at 37° C. in a humidified atmosphere of 5% CO2. The cells were harvested and stained for Annexin V-488/Propidium Iodide (Invitrogen, Sweden) and analysed using flow cytometer (FACS Calibur, BD Bioscience).

mouse FcγRIV = target: T1, mouse FcγRIV (Mus musculus, UniProt A0A0B4J1G0); experiment: Biacore binding of BI-505 isotype variants to mouse FcγRIV
T1 construct: made in house; host or cells: HEK293E (transient)
T1 sequence (A0A0B4J1G0 21-249): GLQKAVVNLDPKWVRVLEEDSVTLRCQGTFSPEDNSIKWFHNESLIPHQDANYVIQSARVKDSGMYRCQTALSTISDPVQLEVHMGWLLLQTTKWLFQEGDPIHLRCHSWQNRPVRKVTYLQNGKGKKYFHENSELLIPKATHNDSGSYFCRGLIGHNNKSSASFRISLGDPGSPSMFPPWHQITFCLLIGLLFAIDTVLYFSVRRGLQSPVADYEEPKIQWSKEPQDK
Procedure: (§1) His-tagged human FcγRIIIa or mouse FcγRIV were expressed transient in adherent HEK293E cells, purified using Ni-NTA chromatography and characterized using SDS-PAGE and/or Biacore. Surface plasmon resonance (SPR) measurements were perfomed using a Biacore 3000 instrument. Goat α-human-F(ab)′2 F(ab)′2 fragment (Jackson laboratories) was immobilised with a CM-5 chip using a standard amine coupling protocol. IgG1 B11, Iga4 B11, or 297Q B11 were diluted to 15 and 60 μg/mL respectively and added to the surface at […] for 3 min. His tagged human FcγRIIIa or mouse FcγRIV were pre-incubated with an α-HIS antibody (R&D Systems) at a 2:1 molar ratio before addition to the chip surface, […], 1 min. After each cycle the surface was regenerated twice with glycine buffer pH 1.7.

[6] = test system: B lymphoma cell line (CL-01); experiment: ADCC of tumor cells with human NK effector cells; assay type: cell-based; conditions: human Natural Killer effector cells
Text: Buffy coats from human donors (ordered through Blodcentralen, Lund) were used to isolate peripheral blood mononuclear cells (PBMCs), and subsequently NK cells. Briefly, peripheral blood components were separated using Ficoll Paque PLUS (Amersham Biosciences, Sweden) in LeucoSep tubes (Greiner Bio-One). The PBMC fraction was removed and thoroughly washed in ice-cold DPBS (Invitrogen), before magnetic labeling and separation of the NK cell population using positive or negative NK cell isolation kits and MACS LS columns (Miltenyi Biotec). The purity of the obtained NK cell fractions was analyzed using flow cytometry, after staining with α-CD56 antibodies (BD Biosciences). Target cells were harvested, and incubated in medium with or without the respective antibodies (2 μg/mL) for 60 min on ice. Cells were thereafter washed and resuspended in cold medium before dispension into FACS tubes. Subsequently, isolated NK cells were diluted in ADCC medium and dispensed together with the respective antibody-coated target cells at varying effector/target cell ratios (40:1, 20:1, 5:1 and 1:1). All experiments were performed in triplicates. After completed incubation ToPo-Pro-3 dye and counting beads (Invitrogen) were added and cells were analyzed for membrane permeabilization using flow cytometry.

[7] = Mouse serum antibody levels by ELISA at end of xenograft experiment; assay type: in vivo; conditions: dose 2 mg/kg; mouse serum at end of experimentation
Procedure: We next performed a dose-titration experiment to establish IgG B11 in vivo potency and the minimal dose achieving maximal anti-tumor activity, using the scid/ARH-77 model system. […] Mouse serum antibody trough concentrations were determined by ELISA at the end of experimentation. Trough antibody concentrations were then plotted against percent of maximal in vivo anti-tumour activity, and against percent of maximal ICAM-1 receptor occupancy and tumour cell PCD at corresponding antibody concentrations in vitro (FIGS. 3C, 3D, 3E, 3F and 3G). Strikingly, a near perfect correlation between antibody concentration and in vitro tumour cell receptor occupancy, in vitro tumor cell PCD, and in vivo anti-tumour activity was observed, consistent with ICAM-1 dependent direct cell cytotoxicity underlying in vivo anti-tumour activity.

human FcγRIIIa = target: T2, human FcγRIIIa (Homo sapiens, UniProt P08637); experiment: Biacore binding of BI-505 isotype variants to human FcγRIIIa
T2 construct: made in house; host or cells: HEK293E (transient)
T2 sequence (P08637 17-254): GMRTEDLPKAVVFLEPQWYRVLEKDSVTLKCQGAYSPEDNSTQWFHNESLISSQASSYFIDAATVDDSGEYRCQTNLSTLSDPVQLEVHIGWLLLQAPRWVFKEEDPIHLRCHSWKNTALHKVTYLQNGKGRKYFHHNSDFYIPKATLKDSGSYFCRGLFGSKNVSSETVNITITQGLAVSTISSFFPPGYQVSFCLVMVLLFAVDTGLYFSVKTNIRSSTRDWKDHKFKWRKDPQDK
Procedure: as §1

## Nc1cccc2c1CN(C1CCC(=O)NC1=O)C2=O (stereo not drawn) [Revlimid, Lenalidomide]
[1]
  ICAM-1 expression on tumor cells collected from treated mice: unchanged, high levels

## rituximab [reference compound]
ARH-77 tumors
  animal survival: incapable of reducing tumor growth or promoting animal survival
  tumor growth: incapable of reducing tumor growth
ARH-77 cells [2]
  tumor growth: significant anti-tumor activity albeit less efficaciously
[3]
  induction of CDC: effectively induced CDC

## CC(C)C[C@H](NC(=O)[C@H](Cc1ccccc1)NC(=O)c1cnccn1)B(O)O [bortezomib, reference compound]
[1]
  ICAM-1 expression on tumor cells collected from treated mice: unchanged, high levels
ARH-77 cells [4]
  animal survival: did not significantly enhance animal survival
  time to symptomatic disease onset: insignificantly delayed disease onset

## CC(=O)O[C@H]1C(=O)[C@@]2(C)[C@H]([C@H](OC(=O)c3ccccc3)[C@]3(O)C[C@H](OC(=O)[C@H](O)[C@@H](NC(=O)c4ccccc4)c4ccccc4)C(C)=C1C3(C)C)[C@]1(OC(C)=O)CO[C@@H]1C[C@@H]2O [paclitaxel, reference compound]
[5]
  PCD induction in normal endothelial cells: induced significant endothelial cell

## N[C@@H](Cc1ccc(N(CCCl)CCCl)cc1)C(=O)O [AIKERAN, Melphalan]
[1]
  ICAM-1 expression on tumor cells collected from treated mice: unchanged, high levels

B1: IgG4: human IgG4 isotype switch variant of B11 (antibody, V domains shown)
VH: EVQLLESGGGLVQPGGSLRLSCAASGFTFSNAWMSWVRQAPGKGLEWVAFIWYDGSNKYYADSVKGRFTISRDNSKNTLYLQMNSLRAEDTAVYYCARYSGWYFDYWGQGTLVTVSS
VL: QSVLTQPPSASGTPGQRVTISCTGSSSNIGAGYDVHWYQQLPGTAPKLLIYDNNNRPSGVPDRFSGSKSGTSASLAISGLRSEDEADYYCQSYDSSLSAWLFGGGTKLTVLG
Mouse FcγRIV
  binding to murine FcγRIV: but not IgG4 or N297Q-mutant, showed strong binding
[6]
  ADCC of target tumor cells: did not mediate ADCC
[7]
  In vivo IgG Levels (serum antibody titers): 13 ± 3.1 µg/mL
Human FcγRIIIa
  binding to human FcγRIIIa: did not bind to human FcγRIIIa

B2: N297Q-mutant: FcγR-binding deficient mutant IgG1 isotype switch variant of B11 (antibody, V domains shown)
VH: B1 VH
VL: B1 VL
Mouse FcγRIV
  binding to murine FcγRIV: but not IgG4 or N297Q-mutant, showed strong binding
[6]
  ADCC of target tumor cells: did not mediate ADCC
[7]
  In vivo IgG Levels (serum antibody titers): 9.6 ± 3. μg/mL
Human FcγRIIIa
  binding to human FcγRIIIa: did not bind to human FcγRIIIa
